In US20110287936A1, “GENE SWITCH COMPOSITIONS AND METHODS OF USE” (priority 2010, published 2011):

Experiments:
[1] = system: tetA promoter (PtetA)-lacZ reporter in E. coli strain KM3; type: cell-based; details: L1 hits, 20 μg/ml
[2] = system: 35S PRO:3xTetOp:dsRED reporter with ESR(L13-2-23); assay: Rice callus RFP induction by sulfonylureas; type: in vivo; details: for RFP Score: 20 hours, rice callus
Method: Mature seed of rice were surface sterilized and placed on callus induction medium (Chu (N6) salts, Eriksson's vitamins, 0.5 mg/L thiamine, 2 mg/L 2,4-D, 2.1 g/L proline, 30 g/L sucrose, 300 mg/L casein hydrolysate, and 100 mg/L myo-inositol, adjusted to pH 5.8). After one week, callus was transformed using Agrobacterium LBA4404, delivering the following T-DNA: • RB-35S PRO:3xTetOp:dsRED::pinII+35S PRO::Adh intron::ESR(L13-2-23)::UBI TERM+Sb-ALS PRO::HRA::pinII-LB
Transgenic events were visually selected as […] calli growing on 100 PPB ethametsulfuron. […] Non-fluorescing events were then transferred to plates of medium containing varying amounts of sulfonylureas (SU). For the control, there was no SU, with additional treatments containing 100 or 500 ppb chlorsulfuron, and 100 or 500 ppb ethametsulfuron, After 20 hours of the induction treatment, micrographs were taken at the same exposure and scored (see Example 7 for scoring criteria) as shown in the table below
(§1) The BSV::tetOp promoter and the MP1::tetOp promoter were synthesized and cloned into expression cassettes driving expression of the DsRED (RFP) gene for testing. For all comparisons of RFP expression, side-by-side comparisons were made within experiment by taking micrographs of the tissue at the same exposure and qualitatively ranking fluorescence intensity, assigning the scores in the table below. The DsRED protein is very stable (has a relatively long half-life), and even with low expression levels in the cell can accumulate over time.

[3] = system: BSV(AY) PRO::tetOp::ODP2 with ESR(3E3); assay: Inducible callus initiation from maize leaf pieces; type: in vivo; details: 100 mg/L chlorsulfuron, two weeks
Method: Immature maize embryos from maize inbred PHN46 were transformed as describe in Example 5D using Agrobacterium comprising the following: • RB-BSV(AY) PRO::tetOp::Adh1 Intron::ODP2::pinII+35S ENH::ALS PRO::HRA::pinII+Ubi Pro::ESR(3E3)::pinII-LB.
Events were selected on 100 μg/l chlorsulfuron, and plantlets were regenerated in the absence of the SU compound. When the plantlets were approximately 20 cm tall, the leaves were cut into approximately 2-4 mm cross-sections and placed on embryogenic culture medium+/−100 mg/L chlorsulfuron.

[4] = system: BSV:tetOp or 35S:tetOp::dsRed with Ubi:ESR(3E3); assay: Maize callus RFP de-repression on chlorsulfuron selection; type: in vivo
Text: as §1
Maize immature embryos were transformed with Agrobacterium as generally described in Example 5D. Transformants were generated that contained one of the two T-DNAs shown below: • RB-BSV:tetOp::Adh Intron::dsRed+ALS:HRA+Ubi:ESR(3E3)-LB • RB-35S:tetOp::Adh intron::dsRed+ALS:HRA+Ubi::ESR(3E3)-LB
Selection of transgenic events was performed using 30, 100, or 500 μg/L chlorsulfuron.

[5] = system: 35S PRO:tetOp::moCRE with ESR(L13-2-23), loxP AmCYAN/ZsYELLOW reporter; assay: Ethametsulfuron-induced Cre excision in rice callus; details: rice calli, 250 μg/L ethametsulfuron, one week
Method: (§2) Herbicide-resistant, blue fluorescent co-transformed calli were recovered and tested for SU-inducible excision. Calli were split onto media+/−250 μg/L ethametsulfuron.

[6] = system: 35S PRO:tetOp::moCRE with ESR(L13-2-23), loxP AmCYAN/ZsYELLOW reporter; assay: Ethametsulfuron-induced Cre excision in maize callus; details: maize calli, 250 μg/L ethametsulfuron, one week
Method: as §2

[7] = system: 35S PRO:tetOp::moCRE with ESR(L13-2-23), lox66/lox71 AmCYAN/ZsYELLOW reporter; assay: Ethametsulfuron-induced Cre inversion in maize callus; details: 250 μg/L ethametsulfuron, one week
[8] = system: 35S/TripleOp/Pro::RFP reporter; assay: Maize callus and seedling RFP de-repression; type: in vivo; details: 1 mg/l doxycycline; callus and plants with UBI::TetR expression cassette

COc1nc(C)nc(NC(=O)NS(=O)(=O)c2ccccc2Cl)n1 [chlorsulfuron, 2 chloro N((4 methoxy 6 methy 1,3,5 triazine 2 yl)aminocarbonyl)benzenesulfonamide]
potency as activator compared with Harmony® [1]: more potent activators than the starting ligand Harmony® | RFP Score ([2]; 100 ppb): 0-1 | RFP Score ([2]; 500 ppb): 2-3 | callus initiation from leaf pieces [3]: producing callus from the leaf segments | RFP Score ([4]; 30 μg/l, six weeks): 0 | RFP fluorescence ([4]; 100 μg/l, six weeks): small sectors of RFP fluorescence were observed | RFP fluorescence ([4]; 500 μg/l, six weeks): large segments of the calli were brightly fluorescing | activity as inducer of the ethametsulfuron repressor, fold less ([4]; in vivo): approximately 10 fold

CCOc1nc(NC)nc(NC(=O)NS(=O)(=O)c2ccccc2C(=O)OC)n1 [ethametsulfuron, Ethametsulfuron-methyl]
potency as activator compared with Harmony® [1]: more potent activators than the starting ligand Harmony® | level of RFP induction, comparison of ligands ([2]; 100 and 500 ppb): induced to a greater level than chlorsulfuron | RFP Score ([2]; 100 ppb): 1-2 | RFP Score ([2]; 500 ppb): 4 | SU-inducible excision [5]: yellow fluorescent sectors were observed | SU-inducible excision [6]: yellow fluorescent sectors were observed | SU-inducible inversion [7]: sectors exhibiting only yellow fluorescent

C[C@H]1c2cccc(O)c2C(=O)C2=C(O)[C@]3(O)C(=O)C(C(N)=O)=C(O)[C@@H](N(C)C)[C@@H]3[C@@H](O)[C@@H]21 [doxycycline]
induction period [8]: 5 to 6 days

CCOC(=O)c1ccccc1S(=O)(=O)NC(=O)Nc1nc(Cl)cc(OC)n1 [chlorimuron, Chlorimuron-ethyl]
potency as activator compared with Harmony® [1]: more potent activators than the starting ligand Harmony®
